# Results: US11982667B2, “Platelet aggregation capacity analyzer, analysis method, and analysis system using complex dielectric permittivity” (SONY CORPORATION, priority 2018, dated 2024)
# Experiments:
# [1] = system: platelets in whole blood (ADP pathway); experiment: DBCM platelet assay (ADP pathway), activation residual rate AR3 by Method 3; assay type: cell-based, human; conditions: citrated whole blood of healthy volunteers spiked with ticagrelor; final blood concentration 400 nM and above; ADP 13 μM; DCS74 feature value
# Description: In this experiment, the operating sequence of the dielectric coagulation analyzer experimental machine developed for dielectric blood coagulometry (also simply herein referred to as “DBCM”) was used with some modifications to realize a platelet assay.
# When the measurement is started, 200 μL of citric acid-added blood sample is dispensed into a disposable cartridge into which a reagent(s) has been introduced in advance, and the mixture is mixed and stirred by automatic pipetting with a suction volume of about 200 μL. […]
# Immediately after the completion of stirring, the dielectric permittivity measurement was started, and a change in the blood dielectric permittivity associated with blood coagulation was recorded at a measurement frequency of from 10 kHz to 10 MHz, a measurement time of 60 min, and a measurement time interval of 5 sec. […]
# Meanwhile, in Methods 1 and 2, the response upper limit was obtained when the measurement was conducted without adding any agonist experimentally. […] In this regard, however, the ideal measured value should be obtained when 215 mM lyophilized calcium chloride reagent without any agonist is used and the number of stirring operations is changed to 5 times which is the minimum so as to prevent some of the platelets from being activated and reacted due to stirring-induced shear stress. […]
# [2] = single oral administration of 200 mg; cited from earlier work
smiles,measurement,setting,value
CCCSc1nc(N[C@@H]2C[C@H]2c2ccc(F)c(F)c2)c2nnn([C@@H]3C[C@H](OCCO)[C@@H](O)[C@H]3O)c2n1 [ticagrelor],platelet activation residual rate AR3 (%),[1],≤ 30%
same,maximum plasma concentration,[2],923 ng/mL
